Measurements from ChEMBL document CHEMBL2346550, “Synthesis of novel azo compounds containing 5(4H)-oxazolone ring as potent tyrosinase inhibitors” (Bioorg Med Chem, 2013).

Tests used:
[1] = Cytotoxicity against mouse B16F10 cells assessed as cell viability at 20 ug/ml after 72 hrs by micro-culture MTT assay; format: cell-based, B16-F10; settings: read-out: Activity
Tyrosinase = target: T1, Tyrosinase (Agaricus bisporus, UniProt O42713); assay: Inhibition of diphenolase activity of mushroom tyrosinase assessed as decrease in L-DOPA chrome formation using L-DOPA as substrate preincubated with enzyme for 10 mins prior to substrate addition measured for 10 mins by spectrophotometric assay
T1 sequence (O42713 whole entry): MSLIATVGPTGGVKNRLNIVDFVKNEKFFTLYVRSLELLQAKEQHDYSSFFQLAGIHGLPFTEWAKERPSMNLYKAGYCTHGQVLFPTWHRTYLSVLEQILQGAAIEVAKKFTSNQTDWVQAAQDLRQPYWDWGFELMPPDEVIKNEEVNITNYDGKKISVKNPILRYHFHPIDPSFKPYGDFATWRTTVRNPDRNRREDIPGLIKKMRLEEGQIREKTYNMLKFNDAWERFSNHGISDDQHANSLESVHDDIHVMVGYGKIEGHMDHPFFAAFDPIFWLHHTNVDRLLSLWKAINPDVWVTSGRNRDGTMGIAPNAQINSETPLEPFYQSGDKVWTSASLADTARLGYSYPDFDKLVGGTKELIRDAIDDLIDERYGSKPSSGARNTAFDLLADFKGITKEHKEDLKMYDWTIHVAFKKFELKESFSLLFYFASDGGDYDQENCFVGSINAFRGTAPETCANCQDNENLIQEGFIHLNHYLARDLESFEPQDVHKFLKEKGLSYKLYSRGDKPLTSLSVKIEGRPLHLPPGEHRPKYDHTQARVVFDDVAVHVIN

B16-F10 = assay: Inhibition of melanin production in mouse B16F10 cells at 20 ug/ml after 72 hrs; format: functional; settings: B16-F10, 72 h

| SMILES | viability at 72 h, 20 ug/ml [1] [%] | IC50 (Tyrosinase) [µM] | inhibition at 20 µg/mL (B16-F10) [%] |
| --- | --- | --- | --- |
| CC(=O)Oc1c(/N=N/c2ccc(C3=N/C(=C/c4ccc(F)cc4)C(=O)O3)cc2)ccc2ccccc12 | 72.1 | 4.33 | 31.3 |
| CC(=O)Oc1c(/N=N/c2ccc(C3=N/C(=C/c4ccc(OC(F)(F)F)cc4)C(=O)O3)cc2)ccc2ccccc12 | 73.5 | 3.98 | 33.4 |
| CC(=O)Oc1ccc2ccccc2c1/N=N/c1ccc(C2=N/C(=C/c3ccc(F)cc3)C(=O)O2)cc1 | 66.7 | 3.91 | 32.5 |
| CC(=O)Oc1ccc2ccccc2c1/N=N/c1ccc(C2=N/C(=C/c3ccc(OC(F)(F)F)cc3)C(=O)O2)cc1 | 68.7 | 3.04 | 35.6 |
| CN(C)c1ccc(/N=N/c2ccc(C3=N/C(=C/c4ccc(F)cc4)C(=O)O3)cc2)cc1 | 71.9 | 2.01 | 35.7 |
| CN(C)c1ccc(/N=N/c2ccc(C3=N/C(=C/c4ccc(OC(F)(F)F)cc4)C(=O)O3)cc2)cc1 | 67.3 | 1.44 | 34.3 |
